The values that follow come from patent US11584742B2 (MASARYKOVA UNIVERZITA, priority 2018, dated 2023).

The structures appear in SMILES notation.

What is called inhibition is the percentage by which the read-out fell short of the control. Broadly, the IC50 is the concentration needed to halve the response being measured. Lower therefore signals greater potency in that assay.

In one assay the test system is DR-GFP U2OS cells. Briefly: HR assay (GFP fluorescence after I-SceI transfection, flow cytometry). The format is cell-based. The note with it: Homo sapiens, inhibitor at 25 μM, 72 hours after transfection. The protocol:
DR-GFP U2OS cells (Methods in Molecular Biology 2012, 920, 379.) were transfected with 2.5 μg of I-SceI-expressing pCAGGS vector and treated with the inhibitors at 25 μM concentration. 72 hours after the transfection, the cells were trypsinized and resuspended in 3% BSA in PBS. GFP fluorescence detection was carried out using a BD FACSVerse flow cytometer and data analyzed with FlowJo software.
Background: In flow cytometry, cells or beads pass a laser one at a time.

Assay [1] has as its system Phosphorylated RPA32 S4/S8 in U2OS cells. Briefly: RPA assay (RPA phosphorylation after camptothecin). The note with it: Homo sapiens; inhibitor at 10 μM; U2OS cells pre-treated 1 h, then 1 uM camptothecin 1 h. The format is cell-based. The protocol: U2OS cells were pre-treated for 1 h with MRE11 inhibitors followed by addition of 1 uM camptothecin for 1 h. Cells were lysed in SDS-PAGE loading buffer, sonicated and boiled at 70° C. for 10 min. Equal amounts of protein (50-100 μg) were analysed by Tris-glycine gel electrophoresis Expression levels were quantified using Multi Gauge software and expressed relative to loading control. Phosphorylated RPA32 S4/S8 (A300-245A, Bethyl Laboratories) 1:1000 dilution was used.

The target in the next assay is T1, MRE11 (Homo sapiens, UniProt P49959).
T1 sequence (P49959 1-708): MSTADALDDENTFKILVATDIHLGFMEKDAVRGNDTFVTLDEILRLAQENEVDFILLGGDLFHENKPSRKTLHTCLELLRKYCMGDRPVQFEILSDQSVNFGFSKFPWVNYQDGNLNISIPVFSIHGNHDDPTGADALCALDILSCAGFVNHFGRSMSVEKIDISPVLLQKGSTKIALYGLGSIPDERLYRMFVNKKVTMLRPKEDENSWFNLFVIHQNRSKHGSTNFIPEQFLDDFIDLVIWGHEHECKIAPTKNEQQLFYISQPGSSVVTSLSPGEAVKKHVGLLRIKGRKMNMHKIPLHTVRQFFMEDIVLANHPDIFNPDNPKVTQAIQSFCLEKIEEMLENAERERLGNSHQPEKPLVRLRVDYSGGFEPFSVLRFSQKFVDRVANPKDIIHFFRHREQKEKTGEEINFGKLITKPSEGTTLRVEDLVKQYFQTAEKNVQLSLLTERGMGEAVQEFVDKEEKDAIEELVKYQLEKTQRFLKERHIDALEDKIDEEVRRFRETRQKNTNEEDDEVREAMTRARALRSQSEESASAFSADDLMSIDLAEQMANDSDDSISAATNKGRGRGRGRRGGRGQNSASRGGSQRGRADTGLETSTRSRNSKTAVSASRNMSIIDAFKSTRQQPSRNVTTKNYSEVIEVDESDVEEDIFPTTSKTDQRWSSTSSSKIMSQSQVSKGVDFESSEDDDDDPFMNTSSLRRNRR
Briefly: HTS nuclease assay (cleavage of CY5/BBQ-quenched 5' overhang DNA substrate). It counts as biochemical. The conditions noted are these: in vitro HTS nuclease assay; 18 nM MRE11, 40 nM DNA substrate; analysis at t=4 h.

In turn, `COc1cccnc1-c1csc(NC(=O)/C(C#N)=C/c2ccc(O)c(O)c2)n1` [Preparative Example 242, (E)-2-cyano-3-(3,4-dihydroxyphenyl)-N-(4-(3-methoxypyridin-2-yl)thiazol-2-yl)acrylamide] displayed an inhibition at 25 µM in the assay with DR-GFP U2OS cells greater than 75%. Also, the inhibition at 10 µM in assay [1] was 95%. In addition, at MRE11, the concentration for half-maximal inhibition (IC50) is less than 2 µM.
